For the test, the system named is HCV 1b genotype. The test can be described thus: HCV Replicon assay. Particulars: HCV 1b genotype replicon. Format: cell-based. As for the experimental part: An HCV Replicon assay was utilized in the present disclosure, and was prepared, conducted and validated as described in commonly owned PCT/US2006/022197 and in O'Boyle et. al. Antimicrob Agents Chemother. 2005 Apr; 49(4):1346-53. Assay methods incorporating luciferase reporters have also been used as described (Apath.com).
HCV-neo replicon cells and replicon cells containing resistance substitutions in the NS5A region were used to test the currently described family of compounds.
Background: A replicon is a self-replicating genome or part of one, used to study replication in cells.

Setting [1] is: read-out: Range (EC50 ranges against HCV 1b).
Where [2] appears, read: Hepatitis C virus, read-out: 1b (μM) EC50 (Effective 50% inhibitory concentration).
The mark [3] stands for this setting: Hepatitis C virus, read-out: Range (EC50 ranges against HCV 1b).

Molecules are shown by their SMILES. Like-named read-outs stand apart in the source and are kept apart here.

Take `COC(=O)NC(C(=O)N1[C@@H](C)CC[C@H]1c1ncc(-c2ccc(-c3ccc(-c4cnc([C@@H]5CC[C@H](C)N5C(=O)C(NC(=O)OC)C5CCOC6(CCC6)C5)[nH]4)cc3)cc2)[nH]1)C1CCOC2(CCC2)C1` (single isomer, unassigned) [Example 2.1]: under setting [1], the EC50 was 0.9 to 140 nM.

In the case of `COC(=O)NC(C(=O)N1[C@@H](C)CC[C@H]1c1ncc(-c2ccc(-c3ccc(-c4cnc([C@@H]5CC[C@H](C)N5C(=O)C(NC(=O)OC)C5CCOC6(CCC6)C5)[nH]4)cc3)cc2)[nH]1)C1CCOC2(CCC2)C1` (single isomer, unassigned) [Example 2.2], the EC50 under setting [1] was 0.9 to 140 nM.

Consider `COC(=O)NC(C(=O)N1[C@@H](C)CC[C@H]1c1ncc(-c2ccc(-c3ccc(-c4cnc([C@@H]5CC[C@H](C)N5C(=O)C(NC(=O)OC)C5CCOC6(CCCC6)C5)[nH]4)cc3)cc2)[nH]1)C1CCOC2(CCCC2)C1` (single isomer, unassigned) [Example 3.1], for which the EC50 under setting [1] lay in the range of 0.9 to 140 nM.

On to `COC(=O)NC(C(=O)N1[C@@H](C)CC[C@H]1c1ncc(-c2ccc(-c3ccc(-c4cnc([C@@H]5CC[C@H](C)N5C(=O)C(NC(=O)OC)C5CCOC6(CCCC6)C5)[nH]4)cc3)cc2)[nH]1)C1CCOC2(CCCC2)C1` (single isomer, unassigned) [Example 3.2], for which the EC50 under setting [1] lay within 0.9 to 140 nM.

Take `COC(=O)NC(C(=O)N1[C@@H]2C[C@@H]2C[C@H]1c1nc(-c2ccc(-c3ccc(-c4c[nH]c([C@@H]5C[C@H]6C[C@H]6N5C(=O)C(NC(=O)OC)[C@@H]5C[C@@H]6[C@H](C5)C6(F)F)n4)cc3)cc2)c[nH]1)[C@@H]1C[C@@H]2[C@H](C1)C2(F)F` (single isomer, unassigned) [QC1.2]: under setting [2], the EC50 amounted to 0.0049 nM.

Take `COC(=O)NC(C(=O)N1[C@@H]2C[C@@H]2C[C@H]1c1nc(-c2ccc(-c3ccc(-c4c[nH]c([C@@H]5C[C@H]6C[C@H]6N5C(=O)C(NC(=O)OC)[C@@H]5C[C@@H]6[C@H](C5)C6(F)F)n4)cc3)cc2)c[nH]1)[C@@H]1C[C@@H]2[C@H](C1)C2(F)F` (single isomer, unassigned) [QC1.3]: the EC50 under setting [3] is 0.1 to 0.9 nM.

As for `COC(=O)NC(C(=O)N1[C@@H]2C[C@@H]2C[C@H]1c1nc(-c2ccc(-c3ccc(-c4c[nH]c([C@@H]5C[C@H]6C[C@H]6N5C(=O)C(NC(=O)OC)[C@H]5C[C@@H]6C[C@@H]6C5)n4)cc3)cc2)c[nH]1)[C@H]1C[C@@H]2C[C@@H]2C1` (single isomer, unassigned) [QC5.3], the EC50 reads like this: under setting [2], 0.00555 nM; under setting [3], 0.00501 to 0.1 nM.

Take `COC(=O)NC(C(=O)N1[C@@H](C)CC[C@H]1c1nc(-c2ccc(-c3ccc(-c4c[nH]c([C@@H]5CC[C@H](C)N5C(=O)C(NC(=O)OC)C5CCC6(CC6)OC5)n4)cc3)cc2)c[nH]1)C1CCC2(CC2)OC1` (some centres unmarked) [Example 1.1]: under setting [3], the EC50 lay within 0.00501 to 0.1 nM.

`COC(=O)NC(C(=O)N1[C@@H](C)CC[C@H]1c1nc(-c2ccc(-c3ccc(-c4c[nH]c([C@@H]5CC[C@H](C)N5C(=O)C(NC(=O)OC)C5CCC6(CC6)OC5)n4)cc3)cc2)c[nH]1)C1CCC2(CC2)OC1` (some centres unmarked) [Example 1.2]: the EC50 under setting [1] lay in the range of 0.00501 to 0.1 nM.

Turning to `COC(=O)NC(C(=O)N1[C@@H](C)CC[C@H]1c1ncc(-c2ccc(-c3ccc(-c4cnc([C@@H]5CC[C@H](C)N5C(=O)C(NC(=O)OC)C5CC6(CC6)C5)[nH]4)cc3)cc2)[nH]1)C1CC2(CC2)C1` (some centres unmarked) [Example 5.2], the EC50 under setting [3] lay in the range of 0.9 to 140 nM.

On to `COC(=O)N[C@H](C(=O)C1[C@@H](CF)CC[C@H]1c1ncc(-c2ccc(-c3ccc(-c4cnc([C@@H]5CC[C@H](CF)N5C(=O)[C@@H](NC(=O)OC)[C@H]5CCOC6(CC6)C5)[nH]4)cc3)cc2)[nH]1)[C@H]1CCOC2(CC2)C1` (some centres unmarked) [Example 8], for which the EC50 under setting [3] fell in the range of 0.00501 to 0.1 nM.

`COC(=O)NC(C(=O)N1CCC[C@H]1c1nc(-c2ccc(-c3c[nH]c([C@@H]4CCCN4C(=O)C(NC(=O)OC)C4CCOC5(CC5)C4)n3)cc2)c[nH]1)C1CCOC2(CC2)C1` (stereo partly drawn) [Example QC14, dimethyl (benzene-1,4-diylbis(1H-imidazole-4,2-diyl(2S)pyrrolidine-2,1-diyl(1-(4-oxaspiro[2.5]oct-7-yl)-2-oxoethane-2,1-diyl)))biscarbamate]: under setting [3], the EC50 was in the range of 0.9 to 140 nM.

For `COC(=O)NC(C(=O)N1[C@@H]2C[C@@H]2C[C@H]1c1nc(-c2ccc(-c3ccc(-c4c[nH]c([C@@H]5C[C@H]6C[C@H]6N5C(=O)C(NC(=O)OC)[C@H]5C[C@@H]6[C@H](C5)C6(F)F)n4)cc3)cc2)c[nH]1)[C@H]1C[C@@H]2[C@H](C1)C2(F)F` (stereo partly drawn) [QC2.2, dimethyl (4,4′-biphenyldiylbis(1H-imidazole-4,2-diyl(1R,3S,5R)-2-azabicyclo[3.1.0]hexane-3,2-diyl(1-((1R,3r,5S)-6,6-difluorobicyclo[3.1.0]hex-3-yl)-2-oxo-2,1-ethanediyl)))biscarbamate], under setting [1], the EC50 lay in the range of 0.00501 to 0.1 nM.

With `COC(=O)NC(C(=O)N1[C@@H]2C[C@@H]2C[C@H]1c1nc(-c2ccc(-c3ccc(-c4c[nH]c([C@@H]5C[C@H]6C[C@H]6N5C(=O)C(NC(=O)OC)[C@H]5C[C@@H]6[C@H](C5)C6(F)F)n4)cc3)cc2)c[nH]1)[C@H]1C[C@@H]2[C@H](C1)C2(F)F` (stereo partly drawn) [QC2.3, dimethyl (4,4′-biphenyldiylbis(1H-imidazole-4,2-diyl(1R,3S,5R)-2-azabicyclo[3.1.0]hexane-3,2-diyl(1-((1R,3r,5S)-6,6-difluorobicyclo[3.1.0]hex-3-yl)-2-oxo-2,1-ethanediyl)))biscarbamate], the EC50 was 1.08 nM (read-out: 1b (μM) EC50 (Effective 50% inhibitory concentration)) and 0.9 to 140 nM under setting [1].

As for `COC(=O)NC(C(=O)N1[C@@H]2C[C@@H]2C[C@H]1c1nc(-c2ccc(-c3ccc(-c4c[nH]c([C@@H]5C[C@H]6C[C@H]6N5C(=O)C(NC(=O)OC)[C@@H]5C[C@@H]6C[C@@H]6C5)n4)cc3)cc2)c[nH]1)[C@@H]1C[C@@H]2C[C@@H]2C1` (stereo partly drawn) [QC3.2, dimethyl (4,4′-biphenyldiylbis(1H-imidazole-4,2-diyl(1R,3S,5R)-2-azabicyclo[3.1.0]hexane-3,2-diyl(1-((1R,3r,5S)-bicyclo[3.1.0]hex-3-yl)-2-oxo-2,1-ethanediyl)))biscarbamate], the EC50 under setting [1] is 0.00501 to 0.1 nM.

On to `COC(=O)NC(C(=O)N1[C@@H]2C[C@@H]2C[C@H]1c1nc(-c2ccc(-c3ccc(-c4c[nH]c([C@@H]5C[C@H]6C[C@H]6N5C(=O)C(NC(=O)OC)[C@@H]5C[C@@H]6C[C@@H]6C5)n4)cc3)cc2)c[nH]1)[C@@H]1C[C@@H]2C[C@@H]2C1` (stereo partly drawn) [QC3.3, dimethyl (4,4′-biphenyldiylbis(1H-imidazole-4,2-diyl(1R,3S,5R)-2-azabicyclo[3.1.0]hexane-3,2-diyl(1-((1R,3r,5S)-bicyclo[3.1.0]hex-3-yl)-2-oxo-2,1-ethanediyl)))biscarbamate], for which the EC50 under setting [1] was 0.1 to 0.9 nM.

For `COC(=O)N[C@@H](C(=O)N1C2C[C@@H]2C[C@H]1c1nc(-c2ccc(-c3ccc(-c4c[nH]c([C@@H]5C[C@H]6CC6N5C(=O)[C@H](NC(=O)OC)C5[C@H]6COC[C@@H]56)n4)cc3)cc2)c[nH]1)C1[C@H]2COC[C@@H]12` (stereo partly drawn) [QC4.1, dimethyl (4,4′-biphenyldiylbis(1H-imidazole-4,2-diyl(1R,3S,5R)-2-azabicyclo[3.1.0]hexane-3,2-diyl(1-((1R,5S,6s)-3-oxabicyclo[3.1.0]hex-6-yl)-2-oxo-2,1-ethanediyl)))biscarbamate], the EC50 under setting [1] lay in the range of 0.00501 to 0.1 nM.

In the case of `COC(=O)N[C@@H](C(=O)N1C2C[C@@H]2C[C@H]1c1nc(-c2ccc(-c3ccc(-c4c[nH]c([C@@H]5C[C@H]6CC6N5C(=O)[C@H](NC(=O)OC)C5[C@H]6COC[C@@H]56)n4)cc3)cc2)c[nH]1)C1[C@H]2COC[C@@H]12` (stereo partly drawn) [QC4.2, dimethyl (4,4′-biphenyldiylbis(1H-imidazole-4,2-diyl(1R,3S,5R)-2-azabicyclo[3.1.0]hexane-3,2-diyl(1-((1R,5S,6s)-3-oxabicyclo[3.1.0]hex-6-yl)-2-oxo-2,1-ethanediyl)))biscarbamate], under setting [1], the EC50 lay within 0.1 to 0.9 nM.
